The values below are quoted from earlier work in patent US7759386B2, “Pharmaceutical compositions of estrogenic agents” (Wyeth LLC, priority 2000, dated 2010).

The conditions of the data set: after 1 year of storage; best antioxidant system described; solid state, tablets.

Regarding `C=C1CC[C@H](O)C/C1=C/C=C1\CCC[C@]2(C)[C@@H]([C@H](C)CCCC(C)C)CC[C@@H]12` [cholecalciferol], the original content remaining is recorded as 87.6%.
